How the values were obtained:
[1] = biological target: T1, bovine serum albumin (BSA) (Bos taurus, UniProt P02769); experiment: Circular dichroism spectroscopy of BSA secondary structure; details: BSA 4 µM, 310 K, without 5A8HQ 66.17%
T1 construct: bovine serum albumin (BSA), a representative of serum protein; purchased Sigma-Aldrich Co. LLC
Excerpt: Structural alteration of the BSA when interacting with 5A8HQ was further elucidated by a CD spectroscopy, which is a useful technique for analyzing the secondary structure of macromolecules. BSA structure is dominantly composed of α-helix (~ 67%), represented by two prominent negative bands at 208 (π–π* transition) and 222 (n–π* transition) nm, and a positive band at 192 nm (π–π* transition)[54]. […] This finding is in well agreement with other observations, especially thermodynamic parameters, molecular docking, and molecular dynamics simulations, which implied that BSA tends to transform its native conformation for ground-state complexation with 5A8HQ. Hydrogen bonding and electrostatic networks of the complex might reallocate hydrogen bonding of α-helix structure as indicated by a slight decrease in CD spectral bands.
CD measurement was performed to determine a secondary conformational alteration of BSA under 5A8HQ exposure using a Jasco J-815 spectropolarimeter (JASCO International Co. Ltd., Tokyo, Japan). BSA (4 µM) was incubated with 5A8HQ (5 and 50 µM) in a 1 mm path length cuvette at 310 K under constantly flushed with nitrogen. The spectra were recorded in a range of 200–260 nm at an interval of 1 nm with a 60 nm/min scanning rate.

[2] = read-out: Antioxidant activity IC50; cited from earlier work
[3] = biological target: T1, bovine serum albumin (BSA); experiment: Fluorescence resonance energy transfer (FRET) between BSA and 5A8HQ; type: binding
Excerpt: Besides microenvironmental changes around its fluorophore, quenching of BSA fluorescence may also be provoked by fluorescence resonance energy transfer (FRET) process, in which the excited Trp and/or Tyr transfer their energy to the quencher (5A8HQ) via dipole–dipole interaction. However, the FRET phenomenon is strictly dependent on the degree of overlapping between emission spectrum of fluorophore and absorption spectrum of quencher. Also, fluorophore and quencher must be in proximity (2–8 nm) to each other and their transition dipoles must align in parallel orientation. FRET is a useful method to study molecular distance among molecules that can provide guidance on whether ligand binds with protein at proximity to the Trp fluorophore. The distance ( r ) between quencher and fluorophore can be calculated by Eq. (6).6 E=1-F/F0=R06/[…] E stands for the efficiency of fluorescence resonance energy transfer. F0 and F are fluorescence intensities of BSA in the absence and presence of 5A8HQ, respectively. R0 is the Förster distance, where half of the excitation energy is transferred to the acceptor. R0 can be obtained by Eqs. (7) and (8) as follows:7 R0=0.211k^2∅DJ/n^4^1/6 8 J=∫0∞Fλελλ^4dλ/∫0∞Fλdλ where k^2 is the orientation factor of the dipoles, which can range between 0 and 4. ∅D and n denote the fluorescence quantum yield of donor without quencher and the refractive index of the medium, respectively. J is an overlapping between the donor fluorescence spectrum and the quencher absorption spectrum. Fλ and ελ mean fluorescence intensity of the donor and molar absorption coefficient of the acceptor at the λ wavelength.
R0 was determined on the assumption that ∅D and n were 0.15 and 1.336, respectively. However, Förster distance depends greatly on orientation between donor’s and acceptor’s dipoles. k^2 value of 0.667 is generally assumed for dynamic dipole orientation, where dipoles are randomly oriented because of their rotational diffusion. […] Based on these two assumptions of dipole orientation, R0 were calculated to be 2.37 and 2.50 nm, which subsequently yielded the Trp to 5A8HQ distances ( r ) at 3.01 and 3.18 nm for static and dynamic dipole orientations, respectively.

[4] = biological target: T1, bovine serum albumin (BSA); experiment: Site probe competitive (site marker displacement) analysis; type: binding; details: 310 K; for Kd: Binding constant KA, BSA 4 µM
Excerpt: Serum albumin can bind and transport various molecules since its structure assembles many binding pockets. Site I and site II are well-defined binding pockets located in hydrophobic regions of subdomains IIA and IIIA, respectively, which primarily bind aromatic and heterocyclic compounds. Site III is found on the hydrophilic region of subdomain IB to serve as a binding pocket for numerous compounds e.g., bilirubin, hemin, and sulfonamide derivatives. In addition, seven binding sites for fatty acids are discovered on subdomains IB, IIIA, and IIIB, and at the interface between subdomains. Herein, site-probe displacement study was employed to determine the preferred binding site on BSA of 5A8HQ using warfarin, ibuprofen, and digitoxin as competitive probes for sites I, II, and III, respectively. Binding constant of 5A8HQ to BSA was determined during equilibration with each site marker (Table 4).
BSA (4 µM) was equilibrated with various concentrations of 5A8HQ (0, 5, 10, 30, 50, 70, 90, 110, 130, 150, and 170 µM) for 10 min at the different temperatures (290, 300, and 310 K). Later, fluorescence spectra in a range of 285–450 nm were measured with 280 nm excitation using a temperature-controlled QuantaMaster™ 40 spectrofluorometer (Photon Technology International, Inc., Ontario, Canada). Site marker displacement analyses were achieved as the abovementioned, but an equimolar concentration of […] was added to BSA prior challenging with various 5A8HQ concentrations at physiological temperature (310 K). Inner filter effect (IFE) becaused by the excitation and emission beam attenuations by sample might produce nonlinearity artifact on the measured fluorescent signal, so IFE was routinely eradicated by the following equation[55].9 Fcor=Fobs×e^(A^ex-A^em)/2 where Fobs and Fcor are the measured and corrected fluorescence intensities, respectively. A^ex and A^em are the absorbance values at excitation and emission wavelengths being measured. The IFE corrected fluorescence signals were served for estimations of all pertinent parameters, such as quenching constant, binding constant, and thermodynamics parameters, if not otherwise stated.

[5] = biological target: T1, bovine serum albumin (BSA); experiment: Fluorescence quenching of BSA (Stern–Volmer, Hill and Van't Hoff analyses); type: binding; details: for Stern–Volmer constant Ksv: BSA 4 µM, 5A8HQ 0–170 µM; for Quenching rate constant kq: lifetime of 1 × 10^−8 s assumed
Excerpt: Quenching of intrinsic protein fluorescence can be triggered by either static or dynamic process. In some circumstances, both processes can concurrently provoke fluorescence quenching known as a combined quenching mechanism. Static and dynamic quenching processes obey a linear model of the Stern–Volmer equation (Eq. 1), which can be approximately differentiated by scrutinizing the Stern–Volmer constant ( Ksv ) at different temperatures. Positive relationship of Ksv with temperature indicates dynamic quenching process, while negative association infers static process. Dynamic quenching occurs via collisional encountering among protein and ligand. Increasing temperature enlarges ligand motion to hit protein and quench its fluorescence at the excited state, resulting in increasing Ksv . Static quenching is contrary to the dynamic one. It is arisen by the complexation of protein and ligand, in which rising temperature tends to disfavor binding event and lessen Ksv value. Combined quenching process influences both ground-state and excited state of protein fluorescence, which usually deviates the linearity of classical Stern–Volmer plot to downward or upward curvature[42].1 F0/F=1+KsvQ=1+kqτ0Q F0 and F are the steady-state fluorescence intensities of fluorophore (BSA) in the absence and the presence of quencher (5A8HQ), respectively. Q refers to the molar concentration of quencher. Ksv is Stern–Volmer constant. kq and τ0 are biomolecular quenching rate constant and fluorescence lifetime of the fluorophore without quencher, respectively.
Fluorescence quenching and thermodynamic analyses were performed at three different temperatures including 310, 300, and 290 K to imitate physiological, ambient, and hypothermic conditions, respectively. The 5A8HQ quenched fluorescence emission of BSA in a concentration dependent manner and almost reached saturation at 5A8HQ concentration above 130 µM (Fig. 3A). The Stern–Volmer plots behaved in a positive linear trend, indicating a single process of BSA fluorescence quenching by 5A8HQ (Fig. 3B).
In addition, quenching process could be roughly verified by determining the quenching rate constant of the interaction (Eq. (1)), in which the quenching rate constant at 2 × 10^10 M^−1 s^−1 is usually employed as a maximum cutoff for diffusion collision quenching of various quenchers. The fluorescence lifetime of excited state can be measured using a lifetime spectrofluorometer. However, in case of inaccessible to such instrument like this study, a lifetime of 1 × 10^−8 s is generally assumed for the calculation of quenching rate constant. Accordingly, the quenching rate constant of BSA‒5A8HQ interaction at each temperature was approximated to be 10^12 M^−1 s^−1 (Table 2), which was 100 times higher than that of the typical collisional quenching process (2 × 10^10 M^−1 s^−1). […] Thereby, the binding constants of complexation were elucidated using Hill’s plot.
Various non-covalent interactions play an important role in the binding of ligand to protein including hydrogen bonding, van der Waals force, electrostatic, and hydrophobic interactions. Therefore, complex formation between BSA and 5A8HQ was further explored to determine principal interaction forces and binding affinity. Nonlinear Hill’s equation (Eq. (2)) was applied on the fluorescence dataset of BSA–5A8HQ complex to obtain binding constant ( KA ) and Hill coefficient constant ( n ), which fundamentally infer affinity and cooperativity of the binding, respectively (Fig. 4A).
2 F0-F/F0=KA[Q]^n/1+KA[Q]^n F0 , F , and Q stand for the same annotations as the aforementioned in Eq. (1). Hill’s equation can be transformed to linear form as an expression of Eq. (3), which is often applied in many studies.3 logF0-F/F=logKA+nlogQ KA is similar to KSV in terms of binding constant, but in different aspects of interaction behavior. KA implies a degree of affinity at static process, while KSV rather reflects dynamic behavior among protein and ligand[16]. […]

BSA = tested on: BSA; design: method as in PMID 30865872; details: cited from earlier work

T1 sequence (P02769 25-607): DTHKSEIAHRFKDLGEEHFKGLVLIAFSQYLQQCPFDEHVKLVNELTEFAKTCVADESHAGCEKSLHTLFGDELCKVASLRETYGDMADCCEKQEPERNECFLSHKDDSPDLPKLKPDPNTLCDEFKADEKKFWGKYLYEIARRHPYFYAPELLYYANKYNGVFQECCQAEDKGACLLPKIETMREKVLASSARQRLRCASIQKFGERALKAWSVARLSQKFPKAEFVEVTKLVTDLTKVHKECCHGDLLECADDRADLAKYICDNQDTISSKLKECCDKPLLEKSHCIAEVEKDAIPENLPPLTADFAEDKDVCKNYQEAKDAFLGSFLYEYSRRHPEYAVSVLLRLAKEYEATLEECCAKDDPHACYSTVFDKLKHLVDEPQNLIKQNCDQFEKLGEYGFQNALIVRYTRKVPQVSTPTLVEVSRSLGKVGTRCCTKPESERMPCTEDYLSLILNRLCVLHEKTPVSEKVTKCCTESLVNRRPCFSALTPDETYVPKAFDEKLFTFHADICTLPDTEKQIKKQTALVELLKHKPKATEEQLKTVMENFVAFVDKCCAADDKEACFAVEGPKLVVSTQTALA

## Nc1ccc(O)c2ncccc12 [5A8HQ, 5-Amino-8-hydroxyquinoline]
[1]; 5A8HQ 5 µM
  α-helix content of BSA: 64.96%
[1]; 5A8HQ 50 µM
  α-helix content of BSA: 63.65%
[2]
  IC50: 8.71 µM
[3]; BSA 4 µM fluorescence, 5A8HQ 5 µM absorption
  Integral spectral overlap J: 9.55 × 10^13 M^−1 cm^−1 nm^4
[3]; dynamic dipole orientation
  Trp to 5A8HQ distance r: 3.18 nm
[3]; dynamic dipole orientation, k^2 0.667
  Förster distance R0: 2.50 nm
[3]; static dipole orientation
  Trp to 5A8HQ distance r: 3.01 nm
[3]; static dipole orientation, k^2 0.475
  Förster distance R0: 2.37 nm
[4]; with digitoxin (site III marker) 4 µM
  Kd: 47.6 µM
[4]; with ibuprofen (site II marker) 4 µM
  Kd: 47.8 µM
[4]; with warfarin (site I marker) 4 µM
  Kd: 47.1 µM
[4]; without site marker
  Kd: 83.7 µM
  Number of binding site n: 1 ± 0
[4]; with digitoxin 4 µM
  Number of binding site n: 1 ± 0
[4]; with ibuprofen 4 µM
  Number of binding site n: 1 ± 0
[4]; with warfarin 4 µM
  Number of binding site n: 1 ± 0
[5]; 290 K
  Hill coefficient constant n: 1 ± 0
  Stern–Volmer constant Ksv: 2.773 ± 0.071 × 10^4 M^−1
  Quenching rate constant kq: 2.773 ± 0.071 × 10^12 (M^−1 s^−1)
[5]; 300 K
  Hill coefficient constant n: 1 ± 0
  Stern–Volmer constant Ksv: 1.303 ± 0.043 × 10^4 M^−1
  Quenching rate constant kq: 1.303 ± 0.043 × 10^12 (M^−1 s^−1)
[5]; 310 K
  Hill coefficient constant n: 1 ± 0
  Stern–Volmer constant Ksv: 1.173 ± 0.032 × 10^4 M^−1
  Quenching rate constant kq: 1.173 ± 0.032 × 10^12 (M^−1 s^−1)
[5]; Binding constant KA, 290 K, Hill's equation
  Kd: 40 µM
[5]; Binding constant KA, 300 K, Hill's equation
  Kd: 58.6 µM
[5]; Binding constant KA, 310 K, Hill's equation
  Kd: 83.7 µM
[5]; Binding constant of BSA‒5A8HQ interaction (order of magnitude), 290–310 K
  Kd: 100 µM
[5]; at each temperature, lifetime 1 × 10^−8 s assumed
  Quenching rate constant (order of magnitude): ~10^12 M^−1 s^−1

## Oc1c(I)cc(Cl)c2cccnc12 [clioquinol, 5-chloro-7-iodo-8-hydroxyquinoline]
BSA
  Binding constant KA: 10^8 M^−1

## Cc1c(C)c2c(c(C)c1O)CC[C@@](C)(CCC[C@H](C)CCC[C@H](C)CCCC(C)C)O2 [α-tocopherol, reference compound]
[2]
  IC50: 13.5 µM
